Measured values: patent US20250051391A1, “PEPTIDE INHIBITORS AND METHODS FOR INHIBITING PROTEIN AGGREGATION IN NEURONS AND NEURODEGENERATIVE DISEASES” (THE GOVERNING COUNCIL OF THE UNIVERSITY OF TORONTO, priority 2021, published 2025)
Ends that are not written are not given here.

Legend:
[1] = tested on: HEK293 cells overexpressing A53T a-syn; assay: Cytotoxicity screen of lentiviral 7-mer peptide library, Alpha syn A53T cells under MG132; type: cell-based, human
Excerpt: A screening system to discover candidate peptides to perturb endogenous PPIs based on libraries of short linear interaction motifs that mediate a large fraction (˜30%) of human PPIs (10-12) was recently developed. Here, a lentiviral library of 50,549 7-mer peptide motifs (13) on a green fluorescent protein (GFP) scaffold (FIG. 1A) was used. Cells in a pooled format were infected and the amino acid sequence of each peptide served as its own barcode. By using a low multiplicity of infection followed by puromycin selection, each infected cell expressed one unique GFP-peptide. Peptides that reduced a-syn-mediated cytotoxicity or a-syn oligomers in parallel (FIG. 1A), were screened for.
To cause cytotoxicity relevant to PD, proteostatic stress in HEK293 cells was induced by inhibiting the proteasome with MG132 and inducing the overexpression of human a-syn (WT) from idiopathic PD in one screen and the more toxic A53T mutant from familial PD in a second screen. The combination of a-syn overexpression and pharmacological proteasome inhibition led to death of most cells, with only those that expressed a protective peptide surviving. By extracting genomic DNA from the surviving cells and amplifying the peptide coding sequences, the protective peptides (FIG. 1A) were identified.
PCR primers that included the Illumina adaptor sequences were used to amplify peptide coding sequences recovered from selection and cell sorting. Results were demultiplexed, and peptide counts were tallied. After demultiplexing, only reads with an average quality Phred score of >30 were selected, and frequencies were calculated. Finally, the reads were then normalized to the total number of peptides read for that sample population, and a scalar factor was applied. In parallel, ˜25 individual colonies were Sanger sequenced to compare to the NGS data.
Lentiviruses were made in a 15 cm dish format by transfecting packaging cells (293T) with a three-plasmid system as previously described. Viral transduction of HEK293T cells, tet-off split luciferase a-syn cells, tet-off parent cells, and SH-SY5Y cells were performed with a multiplicity of infection of 0.3 (MOI=0.3). Infected cells were selected in puromycin-containing medium to eliminate uninfected cells and three aliquots of cells were collected for sampling of the initial (TO) cell population. Cells were treated with MG132 at concentrations of 0 μM, 10 μM, 25 μM or 50 μM. For the cell viability screen, surviving cells were collected and gDNA was extracted for identification of peptide inhibitors of cell toxicity. For the inhibition of a-syn aggregation screen, split YFP-a-syn constructs were transfected following stable expression of the peptides. Cells were sorted based on their GFP fluorescence intensities with a FACSVantage SE cell sorter (BD Bioscience).
Genomic DNA (gDNA) from peptide expressing cells at different time-points was extracted using QIAamp DNA Blood Mini Kit. PCR amplifications of peptides from gDNA in parallel with the lentiviral plasmid library (naïve library) were performed using indexed Illumina PCR primers to incorporate both the Illumina adapter sequences and indexing sequences. Each 50 μl reaction contained 3.2 μg of template, 2×PCR buffer, 2× enhancer solution, 300 μM each dNTP, 900 nM each of Adapter A (5′-[…]-[…]-3′) (SEQ ID NO: 42) and Adapter B (5′-[…]-[…]-3′) (SEQ ID NO: 43), 1 mM MgSO4, 3.75 units of Platinum Pfx polymerase, and water to 50 μl. The PCR reaction was performed by denaturing at 94° C. for 5 minutes, followed by cycling (94° C. for 30 seconds, 65° C. for 30 seconds, 68° C. for 30 seconds)×28 cycles, 68° C. for 5 minutes, then cooling to 4° C. The resulting 244 bp product was purified by electrophoresis in 2% agarose followed by gel extraction. Peptide libraries were quantified using Quant-It assay (Invitrogen) and pooled. […]

[2] = tested on: SNCA triplication fibroblasts; assay: SNCA triplication fibroblasts from a PD patient transduced with AAV peptides; type: cell-based, human
Description: HEK293T cells, tet-off split luciferase a-syn cells, tet-off parent cells and SH-SY5Y cell lines were maintained in DMEM (ATCC) supplemented with 10% FBS and 1% pen/strep/glutamine, and the appropriate selection antibiotics when required. tet-off split luciferase a-syn cells and tet-off parent cells were kept with doxycycline at 1 ng/mL for inhibition of gene expression. SNCA triplication fibroblasts were obtained from NINDS (National Institute of Neurological Disorders and Stroke) and maintained in DMEM supplemented with 10% FBS and 1% pen/strep/glutamine. HA antibodies were obtained from Santa Cruz (7392) and Flag antibodies were purchased from Sigma (A8592). GFP antibodies were purchased from Abcam (ab290).
The Lysosome Intracellular Activity Assay kit was purchased from Abcam and used per manufacturer's instructions (ab234622). […] For HEK293 cells, cells were re-suspended in PBS containing DMSO or Leupeptin and analyzed by FACS. […]
After fixation, cells were permeabilized with 0.2% Triton X-100 for 15 min, washed 3 times with PBS and then incubated with blocking solution (1% BSA, 22.52 mg/mL glycine, 0.1% Tween-20 in PBS) for 1 h. […] Following another 3 PBS washes, nuclei were counterstained with DAPI (ThermoFisher) and then coverslips were mounted on slides using fluorescence mounting medium (DAKO) and sealed using clear nail varnish.

Row | Substance | Slope Norm Reads [1] | Reads 0 uM MG132 ([1]; normalized Illumina peptide counts, 0 uM MG132) | Reads 10 UM MG132 ([1]; normalized Illumina peptide counts, 10 µM MG132) | Reads 25 UM MG132 ([1]; normalized Illumina peptide counts, 25 µM MG132) | Reads 50 UM MG132 ([1]; normalized Illumina peptide counts, 50 µM MG132) | lysosomal activity (lysosomal flux assay) [2] | a-syn fluorescence ([2]; RFP-tagged peptides, vs Scramble1.3)
1 | IPIQLKA [PDpep1, top hit of all screens; maps to CHMP2B residues 203-209] | 40.54 | 168 | 20 | 3859 | 13308 | – | –
2 | DEEIERQLKALG [PDpep1.3] | – | – | – | – | – | increased lysosomal activity | reduced a-syn fluorescence
